Measured values published in patent publication US9828360B2 (Array BioPharma Inc., priority 2012, dated 2017).

These molecules were tested against TrkA (Homo sapiens, UniProt P04629) (assay: TrkA LanthaScreen Eu Kinase Binding Assay). Conditions: averaged IC50 values, read-out: TrkA Enzyme IC50.
Parameters: 6HIS tagged cytoplasmic domain from Invitrogen, Cat. No. PV3144; purchased Invitrogen PV3144
Experimental: TrkA binding activity was determined in a TrkA LanthaScreen™ Eu Kinase Binding Assay. 5 nM His-tagged recombinant human TrkA (6HIS tagged cytoplasmic domain from Invitrogen, Cat. No. PV3144) was incubated with 4 nM Alexa-Fluor® Tracer 236 (Invitrogen Cat. No. PV5592), 2 nM biotinylated anti-His (Invitrogen Cat. No. PV6090), and 2 nM europium-labeled Streptavidin (Invitrogen Cat. No. PV5899), in buffer (25 mM MOPS, pH 7.5, 5 mM MgCl2, 0.005% Triton X-100). Three fold serial dilutions of compounds of the invention in DMSO were added to a final percentage of 2% DMSO. After 60-minute incubation at 22° C., the reaction was measured using the EnVision mutlimode plate reader (PerkinElmer) via TR-FRET dual wavelength detection at […]. The percent of control was calculated using a ratiometric emission factor. The IC50 values were determined by fitting a four parameter model to the percent of control data.
Table A provides averaged IC50 values for compounds of the invention when tested in the assay of Example A, where A represents an averaged IC50 value <100 nM; and B represents an averaged IC50 value from 100 to 1,000 nM.

Sequence of TrkA (P04629 440-796 limits assumed): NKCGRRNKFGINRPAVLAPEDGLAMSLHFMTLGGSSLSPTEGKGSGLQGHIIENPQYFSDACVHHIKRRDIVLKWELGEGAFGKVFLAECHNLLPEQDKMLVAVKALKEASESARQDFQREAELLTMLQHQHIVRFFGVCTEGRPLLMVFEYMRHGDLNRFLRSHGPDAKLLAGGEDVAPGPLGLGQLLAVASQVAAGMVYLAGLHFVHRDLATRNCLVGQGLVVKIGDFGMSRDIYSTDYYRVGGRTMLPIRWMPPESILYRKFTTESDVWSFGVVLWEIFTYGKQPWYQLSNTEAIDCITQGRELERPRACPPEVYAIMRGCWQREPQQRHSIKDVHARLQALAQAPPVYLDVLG

| SMILES | IC50 |
| --- | --- |
| COCCN1C[C@@H](NC(=O)Nc2ccc(S(C)(=O)=O)nc2-c2ccccc2)[C@H](c2ccc(F)c(F)c2)C1 [Example 12, 1-((3S,4R)-4-(3,4-difluorophenyl)-1-(2-methoxyethyl)pyrrolidin-3-yl)-3-(6-(methylsulfonyl)-2-phenylpyridin-3-yl)urea] | < 100 nM |
| COCCN1C[C@@H](NC(=O)Nc2ccc(C#N)nc2-c2ccccc2)[C@H](c2ccc(F)c(F)c2)C1 [Example 24, 1-(6-cyano-2-phenylpyridin-3-yl)-3-((3S,4R)-4-(3,4-difluorophenyl)-1-(2-methoxyethyl)pyrrolidin-3-yl)urea] | < 100 nM |
| COCCN1C[C@@H](NC(=O)Nc2sc(-c3cnn(C)c3)nc2-c2ccccc2)[C@H](c2ccc(F)c(F)c2)C1 [Example 56, 1-((3S,4R)-4-(3,4-difluorophenyl)-1-(2-methoxyethyl)pyrrolidin-3-yl)-3-(2-(1-methyl-1H-pyrazol-4-yl)-4-phenylthiazol-5-yl)urea di(trifluoroacetate)] | < 100 nM |
| COCCN1C[C@@H](NC(=O)Nc2cc(Br)cnc2-c2ccccc2)[C@H](c2ccc(F)c(F)c2)C1 [Example 6, 1-(5-bromo-2-phenylpyridin-3-yl)-3-((3S,4R)-4-(3,4-difluorophenyl)-1-(2-methoxyethyl)pyrrolidin-3-yl)urea] | < 100 nM |
| COCCN1C[C@@H](NC(=O)Nc2oc(C(C)C)nc2-c2ccccc2)[C@H](c2ccccc2)C1 [Example 44, 11-(2-isopropyl-4-phenyloxazol-5-yl)-3-((3S,4R)-1-(2-methoxyethyl)-4-phenylpyrrolidin-3-yl)urea] | 100 to 1000 nM |
| COCCN1C[C@@H](NC(=O)Nc2ccc(S(=O)(=O)C3CC3)nc2-c2ccccc2)[C@H](c2ccc(F)c(F)c2)C1 [Example 22, 1-(6-(cyclopropylsulfonyl)-2-phenylpyridin-3-yl)-3-((3S,4R)-4-(3,4-difluorophenyl)-1-(2-methoxyethyl)pyrrolidin-3-yl)urea] | < 100 nM |
| COCCN1C[C@@H](NC(=O)Nc2cc(OC)cnc2-c2ccccc2)[C@H](c2ccc(F)c(F)c2)C1 [Example 26, 1-((3S,4R)-4-(3,4-difluorophenyl)-1-(2-methoxyethyl)pyrrolidin-3-yl)-3-(5-methoxy-2-phenylpyridin-3-yl)urea] | < 100 nM |
| COCCN1C[C@@H](NC(=O)Nc2ccc(Br)nc2-c2ccccc2)[C@H](c2ccc(F)c(F)c2)C1 [Example 11, 1-(6-bromo-2-phenylpyridin-3-yl)-3-((3S,4R)-4-(3,4-difluorophenyl)-1-(2-methoxyethyl)pyrrolidin-3-yl)urea] | < 100 nM |
| COCCN1C[C@@H](NC(=O)Nc2cccnc2-c2ccccc2)[C@H](c2ccc(F)c(F)c2)C1 [Example 19, 1-((3S,4R)-4-(3,4-difluorophenyl)-1-(2-methoxyethyl)pyrrolidin-3-yl)-3-(2-phenylpyridin-3-yl)urea] | < 100 nM |
| COCCN1C[C@@H](NC(=O)Nc2ccc(C)nc2-c2ccccc2)[C@H](c2ccc(F)cc2)C1 [Example 32, 1-((3S,4R)-4-(4-fluorophenyl)-1-(2-methoxyethyl)pyrrolidin-3-yl)-3-(6-methyl-2-phenylpyridin-3-yl)urea] | < 100 nM |
| COCCN1C[C@@H](NC(=O)Nc2cc(S(C)(=O)=O)cnc2-c2ccccc2)[C@H](c2ccc(F)c(F)c2)C1 [Example 13, 1-((3S,4R)-4-(3,4-difluorophenyl)-1-(2-methoxyethyl)pyrrolidin-3-yl)-3-(5-(methylsulfonyl)-2-phenylpyridin-3-yl)urea] | < 100 nM |
| COCCN1C[C@@H](NC(=O)Nc2oc(-c3ccccc3)nc2C)[C@H](c2ccccc2)C1 [Example 42, 1-((3S,4R)-1-(2-methoxyethyl)-4-phenylpyrrolidin-3-yl)-3-(4-methyl-2-phenyloxazol-5-yl)urea] | 100 to 1000 nM |
| CCc1ccc(NC(=O)N[C@@H]2CN(CCOC)C[C@H]2c2ccc(F)c(F)c2)c(-c2ccccc2)n1 [Example 28, 1-((3S,4R)-4-(3,4-difluorophenyl)-1-(2-methoxyethyl)pyrrolidin-3-yl)-3-(6-ethyl-2-phenylpyridin-3-yl)urea] | < 100 nM |
